{"source": "ChEMBL document CHEMBL5356986", "about": "“Research status of indole-modified natural products” (RSC Med Chem, 2023)", "key": {"[1]": {"tested_on": "Mycobacterium tuberculosis", "experiment": "Antimycobacterial activity against Mycobacterium tuberculosis H37Rv assessed as reduction in bacterial cell growth", "assay_type": "functional"}, "SGC-7901": {"tested_on": "SGC-7901", "experiment": "Cytotoxicity against human SGC-7901 cells assessed as reduction in cell viability measured after 48 hrs by MTT colorimetric assay", "assay_type": "functional, cell-based", "conditions": "SGC-7901, 48 h"}, "HepG2 [2]": {"tested_on": "HepG2", "experiment": "Cytotoxicity against human HepG2 cells assessed as reduction in cell viability measured after 48 hrs by MTT colorimetric based assay", "assay_type": "functional", "conditions": "HepG2, 48 h"}, "HepG2 [3]": {"tested_on": "HepG2", "experiment": "Cytotoxicity against human HepG2 cells assessed as cell growth inhibition", "assay_type": "functional, cell-based"}, "Toxoplasma gondii": {"tested_on": "Toxoplasma gondii", "experiment": "Antiparasitic activity against Toxoplasma gondii tachyzoites infected in human HeLa cells", "assay_type": "functional, organism-based"}, "Leishmania donovani": {"tested_on": "Leishmania donovani", "experiment": "Antileishmanial activity against Leishmania donovani assessed as parasite growth inhibition", "assay_type": "functional, organism-based"}, "[4]": {"experiment": "Antioxidant activity assessed as DPPH radical scavenging activity", "assay_type": "functional"}, "HeLa [5]": {"tested_on": "HeLa", "experiment": "Cytotoxicity against human HeLa cells assessed as reduction in cell viability incubated for 48 hrs by MTT assay", "assay_type": "functional, cell-based"}, "PC-3": {"tested_on": "PC-3", "experiment": "Antiproliferative activity against human PC-3 cells assessed as reduction in cell growth measured after 24 hrs by MTT assay", "assay_type": "functional, cell-based", "conditions": "PC-3, 24 h"}, "HeLa [6]": {"tested_on": "HeLa", "experiment": "Antiproliferative activity against human HeLa cells assessed as inhibition of cell growth incubated for 72 hrs by MTT assay", "assay_type": "functional, cell-based"}, "Alpha glucosidase": {"target": "Alpha glucosidase (Homo sapiens, UniProt O43451+P10253+P14410+Q2M2H8)", "experiment": "Inhibition of Alpha-glucosidase (unknown origin) spectrophotometric analysis", "assay_type": "protein assay"}, "HeLa [7]": {"tested_on": "HeLa", "experiment": "Cytotoxicity against human HeLa cells assessed as cell growth inhibition incubated for 24 hrs by MTT assay", "assay_type": "functional, cell-based"}, "HepG2 [8]": {"tested_on": "HepG2", "experiment": "Antiproliferative activity against human HepG2 cells assessed as reduction in cell viability incubated for 48 hrs by MTT assay", "assay_type": "functional, cell-based", "conditions": "HepG2, 48 h"}, "MCF7": {"tested_on": "MCF7", "experiment": "Antiproliferative activity against human MCF7 cells assessed as inhibition of cell growth by CCK8 assay", "assay_type": "functional, cell-based"}, "HepG2 [9]": {"tested_on": "HepG2", "experiment": "Cytotoxicity against human HepG2 cells by MTT assay", "assay_type": "functional, cell-based"}, "SMMC-7721": {"tested_on": "SMMC-7721", "experiment": "Cytotoxicity against human SMMC-7721 cells assessed as reduction in cell viability", "assay_type": "functional, cell-based"}, "Acetylcholinesterase": {"target": "Acetylcholinesterase (Homo sapiens, UniProt P22303)", "sequence (P22303 whole entry)": "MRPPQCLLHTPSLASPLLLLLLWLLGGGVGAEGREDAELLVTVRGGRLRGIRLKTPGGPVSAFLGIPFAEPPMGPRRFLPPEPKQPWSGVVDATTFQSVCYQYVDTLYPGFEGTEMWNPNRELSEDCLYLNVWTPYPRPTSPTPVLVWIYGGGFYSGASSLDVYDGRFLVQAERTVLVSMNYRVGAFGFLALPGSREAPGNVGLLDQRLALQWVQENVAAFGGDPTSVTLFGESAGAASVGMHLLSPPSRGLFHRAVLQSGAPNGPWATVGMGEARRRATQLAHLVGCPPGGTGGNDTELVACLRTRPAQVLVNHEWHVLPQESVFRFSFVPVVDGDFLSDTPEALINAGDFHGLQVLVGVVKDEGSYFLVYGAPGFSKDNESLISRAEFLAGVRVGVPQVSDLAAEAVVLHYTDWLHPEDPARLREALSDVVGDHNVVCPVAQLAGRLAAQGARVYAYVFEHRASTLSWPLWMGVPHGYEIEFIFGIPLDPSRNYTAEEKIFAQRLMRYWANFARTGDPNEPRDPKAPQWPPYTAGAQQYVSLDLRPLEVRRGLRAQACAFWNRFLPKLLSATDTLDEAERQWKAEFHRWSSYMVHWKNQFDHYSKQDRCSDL", "experiment": "Inhibition of Acetylcholinesterase (unknown origin)"}, "[10]": {"tested_on": "Trichophyton mentagrophytes", "experiment": "Antifungal activity against Trichophyton mentagrophytes assessed as inhibition of fungal growth incubated for 48 hrs by serial plate dilution method", "assay_type": "functional"}, "Nannizzia gypsea": {"tested_on": "Nannizzia gypsea", "experiment": "Antifungal activity against Microsporum gypseum assessed as fungal growth inhibition", "assay_type": "functional"}, "[11]": {"tested_on": "Trichophyton mentagrophytes", "experiment": "Antifungal activity against Trichophyton mentagrophytes assessed as inhibition of microbial growth", "assay_type": "functional"}, "[12]": {"experiment": "Cytotoxicity against mouse RAW264.7 cells assessed as reduction in cell viability incubated for 48 hrs by MTT assay", "assay_type": "toxicity, cell-based"}, "A549": {"tested_on": "A549", "experiment": "Antiproliferative activity against human A549 cells assessed as reduction in cell growth incubated for 72 hrs by MTT assay", "assay_type": "functional, cell-based", "conditions": "A549, 72 h"}, "Caco-2": {"tested_on": "Caco-2", "experiment": "Antiproliferative activity against human Caco-2 cells incubated for 96 hrs by MTT assay", "assay_type": "functional, cell-based", "conditions": "Caco-2, 96 h"}, "[13]": {"target": "Tyrosine-protein phosphatase non-receptor type 1 (Homo sapiens, UniProt P18031)", "sequence (P18031 whole entry)": "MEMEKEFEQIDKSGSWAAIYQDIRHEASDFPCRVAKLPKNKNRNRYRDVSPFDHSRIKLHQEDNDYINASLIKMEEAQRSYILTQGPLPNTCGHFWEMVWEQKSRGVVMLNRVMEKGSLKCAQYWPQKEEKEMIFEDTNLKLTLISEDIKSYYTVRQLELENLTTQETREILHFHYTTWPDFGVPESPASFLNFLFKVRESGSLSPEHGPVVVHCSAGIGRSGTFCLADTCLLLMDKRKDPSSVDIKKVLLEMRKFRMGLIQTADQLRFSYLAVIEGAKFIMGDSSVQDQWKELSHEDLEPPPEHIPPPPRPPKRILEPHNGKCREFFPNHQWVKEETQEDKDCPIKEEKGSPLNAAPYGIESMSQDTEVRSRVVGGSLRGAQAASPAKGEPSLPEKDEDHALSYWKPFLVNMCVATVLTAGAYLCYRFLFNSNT", "experiment": "Inhibition of Protein tyrosine phosphatase 1B (unknown origin)"}, "HCT-116": {"tested_on": "HCT-116", "experiment": "Antiproliferative activity against human HCT-116 cells assessed as inhibition of cell growth", "assay_type": "functional, cell-based"}, "Arthrodermataceae": {"tested_on": "Arthrodermataceae", "experiment": "Antibacterial activity against Arthrodermataceae", "assay_type": "functional"}}}
{"compound": "O=C(c1ccncc1)n1nc(-c2c[nH]c3ccccc23)cc1-c1cc2ccccc2oc1=O", "values": [{"measurement": "MIC", "setting": "[1]", "result": 2.02, "unit": "µM"}]}
{"compound": "CC(C)COC(=O)[C@]12CC[C@@H](C)[C@H](C)[C@H]1C1=CC(=O)[C@@H]3[C@@]4(C)Cc5c([nH]c6ccc(Cl)cc56)C(C)(C)[C@@H]4CC[C@@]3(C)[C@]1(C)CC2", "values": [{"measurement": "IC50", "setting": "SGC-7901", "result": 3.12, "unit": "µM"}, {"measurement": "IC50", "setting": "HepG2 [2]", "result": 3.12, "unit": "µM"}, {"measurement": "IC50", "setting": "HepG2 [3]", "result": 3.12, "unit": "µM"}]}
{"compound": "SPIRAMYCIN", "values": [{"measurement": "IC50", "setting": "Toxoplasma gondii", "result": 262, "unit": "µM"}]}
{"compound": "O=C(CCC(c1ccccc1)c1c[nH]c2ccccc12)c1c(O)c2ccccc2oc1=O", "note": "(centres undefined)", "values": [{"measurement": "IC50", "setting": "Leishmania donovani", "result": 95.5, "unit": "µg/mL"}, {"measurement": "IC50", "setting": "[4]", "result": 12.4, "unit": "µM"}]}
{"compound": "COc1ccc(/C=C/C(=O)/C=C/c2c[nH]c3ccccc23)c(OC)c1OC", "values": [{"measurement": "IC50", "setting": "HeLa [5]", "result": 3.31, "unit": "µM"}, {"measurement": "IC50", "setting": "PC-3", "result": 3.15, "unit": "µM"}]}
{"compound": "COc1cc(C(=O)/C=C/c2c[nH]c3ccccc23)cc([Se]C)c1OC", "values": [{"measurement": "IC50", "setting": "Toxoplasma gondii; Toxoplasma gondii, HeLa", "result": 0.023, "unit": "µM"}, {"measurement": "IC50", "setting": "HeLa [6]", "result": 0.059, "unit": "µM"}]}
{"compound": "COc1ccc2c(CSC(=S)NCCc3c[nH]c4ccccc34)cc(=O)oc2c1", "values": [{"measurement": "IC50", "setting": "Alpha glucosidase", "result": 85, "unit": "µM"}]}
{"compound": "CC(C)[C@@H](C)/C=C/[C@@H](C)[C@H]1CC[C@@H]2[C@]1(C)CC[C@H]1[C@]23C=C[C@]2(C[C@@H](O)CC[C@]12C)OO3", "note": "[ERGOSTEROL PEROXIDE]", "values": [{"measurement": "IC50", "setting": "HeLa [7]", "result": 19.5, "unit": "µM"}, {"measurement": "IC50", "setting": "HepG2 [8]", "result": 23.4, "unit": "µM"}, {"measurement": "IC50", "setting": "MCF7", "result": 18, "unit": "µM"}]}
{"compound": "COc1ccc(C(=O)/C=C/c2ccc3c(ccn3C)c2)c2c1C=CC(C)(C)O2", "values": [{"measurement": "IC50", "setting": "HepG2 [9]", "result": 0.82, "unit": "µM"}]}
{"compound": "Cc1ccc2[nH]c3c(c2c1)C[C@]1(C)[C@H]2CC=C4[C@@H]5[C@@H](C)[C@H](C)CC[C@]5(C(=O)NCCCN(C)C)CC[C@@]4(C)[C@]2(C)CC[C@H]1C3(C)C", "values": [{"measurement": "IC50", "setting": "SMMC-7721", "result": 1.08, "unit": "µM"}]}
{"compound": "O=C1Cc2cc(OCc3ccc(F)cc3)ccc2C=C1C(=O)NCCc1c[nH]c2ccccc12", "values": [{"measurement": "IC50", "setting": "Acetylcholinesterase", "result": 0.16, "unit": "µM"}]}
{"compound": "CCOc1c(Br)cc(/C=C/C(=O)c2c[nH]c3ccccc23)cc1OC", "values": [{"measurement": "MIC", "setting": "[10]", "result": 2, "unit": "µg/mL"}, {"measurement": "MIC", "setting": "Nannizzia gypsea", "result": 0.25, "unit": "µg/mL"}, {"measurement": "MIC", "setting": "[11]", "result": 4, "unit": "µg/mL"}]}
{"compound": "C=C(C)[C@@H]1CC[C@]2(C)CC[C@]3(C)[C@H](CC[C@@H]4[C@@]5(C)Cc6c([nH]c7cc(I)ccc67)C(C)(C)[C@@H]5CC[C@]43C)[C@@H]12", "values": [{"measurement": "IC50 at 48 h", "setting": "[12]", "result": 22.6, "unit": "µM"}]}
{"compound": "CCOc1c(Br)cc(/C=C/C(=O)c2cc3ccccc3n2C)cc1OC", "values": [{"measurement": "IC50", "setting": "A549", "result": 4.3, "unit": "µM"}]}
{"compound": "COc1cc(/C=C/C(=O)CC(=O)/C=C/c2ccc(O)c(OC)c2)ccc1O", "note": "[CURCUMIN]", "values": [{"measurement": "IC50", "setting": "HeLa [5]", "result": 25.4, "unit": "µM"}, {"measurement": "IC50", "setting": "PC-3", "result": 12.2, "unit": "µM"}, {"measurement": "IC50", "setting": "Caco-2", "result": 47.6, "unit": "µM"}]}
{"compound": "CC1(C)c2[nH]c3ccc(C(F)(F)F)cc3c2C[C@]2(C)[C@H]3C(=O)C=C4[C@@H]5C[C@@](C)(C(=O)O)CC[C@]5(C)CC[C@@]4(C)[C@]3(C)CC[C@@H]12", "values": [{"measurement": "IC50", "setting": "[13]", "result": 4.3, "unit": "µM"}]}
{"compound": "COc1cc(C(=O)/C(C)=C/c2c[nH]c3cc(F)ccc23)cc(OC)c1OCCN", "values": [{"measurement": "IC50", "setting": "HCT-116", "result": 0.0032, "unit": "µM"}]}
{"compound": "C[C@]12CC[C@H]3[C@]4(C=C[C@]5(C[C@@H](O)CC[C@]35C)OO4)[C@@H]1CC/C2=N\\N=C1/C(=O)Nc2ccc(Cl)cc21", "values": [{"measurement": "IC50", "setting": "HeLa [7]", "result": 5.69, "unit": "µM"}, {"measurement": "IC50", "setting": "HepG2 [8]", "result": 7.97, "unit": "µM"}, {"measurement": "IC50", "setting": "MCF7", "result": 9.05, "unit": "µM"}]}
{"compound": "COc1ccc(/C=C/C(=O)c2c[nH]c3ccccc23)cc1", "values": [{"measurement": "MIC", "setting": "Arthrodermataceae", "result": 8, "unit": "µg/mL"}, {"measurement": "MIC", "setting": "Nannizzia gypsea", "result": 4, "unit": "µg/mL"}, {"measurement": "MIC", "setting": "[11]", "result": 8, "unit": "µg/mL"}]}
